Source: ChEMBL document CHEMBL1136645, “The identification of clinical candidate SB-480848: a potent inhibitor of lipoprotein-associated phospholipase A2” (Bioorg Med Chem Lett, 2003)

Key:
Cytochrome P450 3A4 = Cytochrome P450 3A4 (Homo sapiens, UniProt P08684); assay: Inhibitory activity against CYP450 3A4 isozyme; format: ADME
Cytochrome P450 2D6 = Cytochrome P450 2D6 (Homo sapiens, UniProt P10635); assay: Inhibitory activity against Cytochrome P450 2D6; format: ADME
[1] = target: T1, Platelet-activating factor acetylhydrolase (Homo sapiens, UniProt Q13093); assay: Inhibitory activity against recombinant human Lp-PLA2
T1 sequence (Q13093 whole entry): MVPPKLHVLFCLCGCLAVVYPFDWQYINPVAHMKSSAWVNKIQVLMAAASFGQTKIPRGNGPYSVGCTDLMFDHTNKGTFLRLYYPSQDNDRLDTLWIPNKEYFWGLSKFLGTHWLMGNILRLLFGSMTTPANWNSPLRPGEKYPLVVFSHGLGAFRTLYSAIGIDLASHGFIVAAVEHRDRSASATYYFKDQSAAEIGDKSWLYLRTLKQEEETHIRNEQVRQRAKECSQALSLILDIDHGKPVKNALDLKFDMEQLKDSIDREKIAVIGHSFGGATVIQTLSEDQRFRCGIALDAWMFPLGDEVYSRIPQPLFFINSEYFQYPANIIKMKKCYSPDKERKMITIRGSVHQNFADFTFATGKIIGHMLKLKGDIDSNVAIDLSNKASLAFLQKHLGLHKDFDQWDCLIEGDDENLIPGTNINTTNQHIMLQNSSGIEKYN

[2] = Permeability was determined; format: ADME; settings: not told; read-out: Permeability (converted)
[3] = Permeability in plasma; format: ADME, cell-free; settings: not told; read-out: Permeability (converted)
[4] = Oral bioavailability in fed rat; format: ADME, organism-based; settings: in vivo
[5] = Oral bioavailability in dog; format: ADME, organism-based, Canis lupus familiaris; settings: in vivo
Homo sapiens [6] = species: Homo sapiens; assay: Inhibitory concentration against lyso-PtdCho production in human LDL
Homo sapiens [7] = species: Homo sapiens; assay: Inhibitory concentration against monocyte chemotaxis
[8] = Oral bioavailability in fasted rat; format: ADME, organism-based; settings: in vivo

Chain of Cytochrome P450 2D6 (P10635 whole entry): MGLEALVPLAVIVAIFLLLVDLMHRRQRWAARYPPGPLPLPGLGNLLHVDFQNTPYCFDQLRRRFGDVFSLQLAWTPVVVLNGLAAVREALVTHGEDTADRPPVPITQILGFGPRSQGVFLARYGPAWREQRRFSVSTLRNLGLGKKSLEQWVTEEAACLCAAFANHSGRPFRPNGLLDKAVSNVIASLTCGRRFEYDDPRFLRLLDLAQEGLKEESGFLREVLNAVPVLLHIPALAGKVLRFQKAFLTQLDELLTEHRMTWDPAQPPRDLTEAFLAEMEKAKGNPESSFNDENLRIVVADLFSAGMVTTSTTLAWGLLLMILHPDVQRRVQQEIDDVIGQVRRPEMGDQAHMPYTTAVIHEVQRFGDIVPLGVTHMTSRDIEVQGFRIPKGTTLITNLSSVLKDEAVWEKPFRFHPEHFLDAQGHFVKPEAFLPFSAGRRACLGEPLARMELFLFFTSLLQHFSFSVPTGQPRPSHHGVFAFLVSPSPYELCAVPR
Chain of Cytochrome P450 3A4 (P08684 whole entry): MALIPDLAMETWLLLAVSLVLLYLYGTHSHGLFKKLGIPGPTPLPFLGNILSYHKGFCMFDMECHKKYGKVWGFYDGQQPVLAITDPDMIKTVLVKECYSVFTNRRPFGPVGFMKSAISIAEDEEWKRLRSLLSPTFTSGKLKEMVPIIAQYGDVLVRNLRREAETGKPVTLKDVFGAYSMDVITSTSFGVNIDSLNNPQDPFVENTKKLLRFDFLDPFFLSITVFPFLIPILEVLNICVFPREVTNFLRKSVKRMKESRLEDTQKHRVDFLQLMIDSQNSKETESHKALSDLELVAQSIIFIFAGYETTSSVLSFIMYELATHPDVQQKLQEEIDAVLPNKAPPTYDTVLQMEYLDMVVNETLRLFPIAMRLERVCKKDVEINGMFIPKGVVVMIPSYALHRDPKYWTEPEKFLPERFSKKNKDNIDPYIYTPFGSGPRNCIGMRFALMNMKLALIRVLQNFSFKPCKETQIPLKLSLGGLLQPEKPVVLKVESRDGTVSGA

SMILES	IC50 (Cytochrome P450 3A4) [µM]	IC50 (Cytochrome P450 2D6) [µM]	IC50 [1] [µM]	Papp [2] [nm/s]	Papp [3] [nm/s]	other results
CCN(CC)CCN(Cc1ccc(-c2ccc(Cl)cc2)cc1)C(=O)Cn1cc(C)c(=O)nc1SCc1ccc(F)cc1	13	15		278		
CCN(CC)CCN(Cc1ccc(-c2ccc(C(F)(F)F)cc2)cc1)C(=O)Cn1c(SCc2ccc(F)cc2)nc(=O)c2c1CCCC2	10	9	0.0001		167	
CCN(CC)CCN(Cc1ccc(-c2ccc(Cl)cc2)cc1)C(=O)Cn1c(SCc2ccc(F)cc2)nc(=O)c2c1CCCC2	5	6	0.00025			
CCN(CC)CCN(Cc1ccc(-c2ccc(C(F)(F)F)cc2)cc1)C(=O)Cn1cc(SC)c(=O)nc1SCc1ccc(F)cc1	15	39	0.0008	83.3		
CCN(CC)CCN(Cc1ccc(-c2ccc(C(F)(F)F)cc2)cc1)C(=O)Cn1cc(OC)c(=O)nc1SCc1ccc(F)cc1				69.4		
CCN(CC)CCN(Cc1ccc(-c2ccc(Cl)cc2)cc1)C(=O)Cn1c(SCc2ccc(F)cc2)nc(=O)c2c1CCC2	18	25	0.0004		389	
CCN(CC)CCN(Cc1ccc(-c2ccc(C(F)(F)F)cc2)cc1)C(=O)Cn1c(SCc2ccc(F)cc2)nc(=O)c(C)c1C	22	24			83.3	
CCN(CC)CCN(Cc1ccc(-c2ccc(C(F)(F)F)cc2)cc1)C(=O)Cn1cc(Cc2cnn(C)c2)c(=O)nc1SCc1ccc(F)cc1						bioavailability [4]: 2%
CCN(CC)CCN(Cc1ccc(-c2ccc(C(F)(F)F)cc2)cc1)C(=O)Cn1c(C)cc(=O)nc1SCc1ccc(F)cc1	22	47			139	
CCc1cn(CC(=O)N(CCN(CC)CC)Cc2ccc(-c3ccc(Cl)cc3)cc2)c(SCc2ccc(F)cc2)nc1=O	7	14		333		
CCN(CC)CCN(Cc1ccc(-c2ccc(C(F)(F)F)cc2)cc1)C(=O)Cn1cc([S+](C)[O-])c(=O)nc1SCc1ccc(F)cc1 (stereo unspecified)			0.0008	16.7		
CCN(CC)CCN(Cc1ccc(-c2ccc(C(F)(F)F)cc2)cc1)C(=O)Cn1c(SCc2ccc(F)cc2)nc(=O)c2c1CCC2 [DARAPLADIB]		26			278	bioavailability [5]: 28%; bioavailability [4]: 11%; IC50 (Homo sapiens [6]): 4 µM; IC50 (Homo sapiens [7]): 4 µM; bioavailability [8]: ~21%

Further lines, with some results ahead:

IC50 (Cytochrome P450 3A4) [µM]	IC50 (Cytochrome P450 2D6) [µM]	IC50 [1] [µM]	Papp [2] [nm/s]	Papp [3] [nm/s]	SMILES	other results
39	56	0.001	250		CCN(CC)CCN(Cc1ccc(-c2ccc(C(F)(F)F)cc2)cc1)C(=O)Cn1cc(Br)c(=O)nc1SCc1ccc(F)cc1	
		0.001		13.9	CCN(CC)CCN(Cc1ccc(-c2ccc(C(F)(F)F)cc2)cc1)C(=O)Cn1cc(CCNS(C)(=O)=O)c(=O)nc1SCc1ccc(F)cc1	
			8.33		CCN(CC)CCN(Cc1ccc(-c2ccc(C(F)(F)F)cc2)cc1)C(=O)Cn1cc(CCO)c(=O)nc1SCc1ccc(F)cc1	
17	39	0.001	222		CCN(CC)CCN(Cc1ccc(-c2ccc(C(F)(F)F)cc2)cc1)C(=O)Cn1cc(C)c(=O)nc1SCc1ccc(F)cc1	
11	24	0.0004	278		CCc1cn(CC(=O)N(CCN(CC)CC)Cc2ccc(-c3ccc(C(F)(F)F)cc3)cc2)c(SCc2ccc(F)cc2)nc1=O	
		0.038			CCN(CC)CCN(Cc1ccc(-c2ccc(C(F)(F)F)cc2)cc1)C(=O)Cn1cc(CCN)c(=O)nc1SCc1ccc(F)cc1	
		0.006		8.33	CCN(CC)CCN(Cc1ccc(-c2ccc(C(F)(F)F)cc2)cc1)C(=O)Cn1cc(CCNC(C)=O)c(=O)nc1SCc1ccc(F)cc1	
29	83	0.003	306		CCN(CC)CCN(Cc1ccc(-c2ccc(C(F)(F)F)cc2)cc1)C(=O)Cn1cc(Cl)c(=O)nc1SCc1ccc(F)cc1	
		0.0015	5.56		CCN(CC)CCN(Cc1ccc(-c2ccc(C(F)(F)F)cc2)cc1)C(=O)Cn1cc(CO)c(=O)nc1SCc1ccc(F)cc1	
5	22	0.0008	361		CCCc1cn(CC(=O)N(CCN(CC)CC)Cc2ccc(-c3ccc(C(F)(F)F)cc3)cc2)c(SCc2ccc(F)cc2)nc1=O	
